Consider three compounds from PubChem BioAssay AID1259407 (Chemical Carcinogenesis Research Information System (CCRIS), 2018).

The series has as its system CCRIS mutagenicity, Ames/micronucleus/aberration tests. The experiment in a line: CCRIS mutagenicity studies.
The mark [1] stands for this setting: Test System: AMES SALMONELLA TYPHIMURIUM, Strain/Indicator: TA100, Metabolic Activation: NONE, Method: STANDARD PLATE.
Where [2] appears, read: Test System: AMES SALMONELLA TYPHIMURIUM, Strain/Indicator: TA1537, Metabolic Activation: NONE, Method: STANDARD PLATE.
Where [3] appears, read: Test System: AMES SALMONELLA TYPHIMURIUM, Strain/Indicator: TA1538, Metabolic Activation: NONE, Method: STANDARD PLATE.

The source made the active and inactive calls. No rule for the calls is given here.

With `O=C(O)/C=C/c1ccc(O)c(O)c1`, the mutagenic call reads like this: (Test System: AMES SALMONELLA TYPHIMURIUM, Strain/Indicator: TA98, Metabolic Activation: HAMSTER, LIVER, S-9, AROCLOR 1254, Method: STANDARD PLATE) “inactive; negative”; (Test System: AMES SALMONELLA TYPHIMURIUM, Strain/Indicator: TA98, Metabolic Activation: NONE, Method: STANDARD PLATE) “inactive; negative”; (Test System: AMES SALMONELLA TYPHIMURIUM, Strain/Indicator: TA98, Metabolic Activation: RAT, LIVER, S-9, AROCLOR 1254, Method: STANDARD PLATE) “inactive; negative”; (Test System: AMES SALMONELLA TYPHIMURIUM, Strain/Indicator: TA100, Metabolic Activation: HAMSTER, LIVER, S-9, AROCLOR 1254, Method: STANDARD PLATE) “inactive; negative”; under setting [1], “inactive; negative”; (Test System: AMES SALMONELLA TYPHIMURIUM, Strain/Indicator: TA100, Metabolic Activation: RAT, LIVER, S-9, AROCLOR 1254, Method: STANDARD PLATE) “inactive; negative”. For the same compound, the mutagenic call was “inactive; negative” (Test System: AMES SALMONELLA TYPHIMURIUM, Strain/Indicator: TA1535, Metabolic Activation: HAMSTER, LIVER, S-9, AROCLOR 1254, Method: STANDARD PLATE); “inactive; negative” (Test System: AMES SALMONELLA TYPHIMURIUM, Strain/Indicator: TA1535, Metabolic Activation: NONE, Method: STANDARD PLATE); “inactive; negative” (Test System: AMES SALMONELLA TYPHIMURIUM, Strain/Indicator: TA1535, Metabolic Activation: RAT, LIVER, S-9, AROCLOR 1254, Method: STANDARD PLATE); “inactive; negative” (Test System: AMES SALMONELLA TYPHIMURIUM, Strain/Indicator: TA1537, Metabolic Activation: HAMSTER, LIVER, S-9, AROCLOR 1254, Method: STANDARD PLATE); “inactive; negative” under setting [2]; “inactive; negative” (Test System: AMES SALMONELLA TYPHIMURIUM, Strain/Indicator: TA1537, Metabolic Activation: RAT, LIVER, S-9, AROCLOR 1254, Method: STANDARD PLATE). Also, the mutagenic call is “inactive; negative” (Test System: AMES SALMONELLA TYPHIMURIUM, Strain/Indicator: TA1538, Metabolic Activation: HAMSTER, LIVER, S-9, AROCLOR 1254, Method: STANDARD PLATE); “inactive; negative” under setting [3]; “inactive; negative” (Test System: AMES SALMONELLA TYPHIMURIUM, Strain/Indicator: TA1538, Metabolic Activation: RAT, LIVER, S-9, AROCLOR 1254, Method: STANDARD PLATE); “active; positive. reevaluation of results: positive” (Test System: MOUSE LYMPHOMA, Strain/Indicator: L5178Y (TK+/TK-), Metabolic Activation: NONE, Method: SUSPENSION/PLATE); “inactive; negative; reevaluation of results: negative” (Test System: MOUSE LYMPHOMA, Strain/Indicator: L5178Y (TK+/TK-), Metabolic Activation: RAT, LIVER, S-9, AROCLOR 1254, Method: SUSPENSION/PLATE).

In the case of `NNC(N)=O`, the mutagenic call (End Point: IN VIVO MICRONUCLEUS, Test System: POLYCHROMATIC ERYTHROCYTES, Species: MOUSE, Strain/Sex: BALB/C/MALE, Route: IP INJECTION) was “inactive; negative” and the mutagenic call (End Point: IN VIVO MICRONUCLEUS, Test System: POLYCHROMATIC ERYTHROCYTES, Species: MOUSE, Strain/Sex: CBA/MALE, Route: IP INJECTION) was “inactive; negative”.

`C#CCOCCn1cc[n+](C)c1/C=N/O`: the mutagenic call (Test System: AMES SALMONELLA TYPHIMURIUM, Strain/Indicator: TA97, Metabolic Activation: NONE, Method: STANDARD PLATE) is “inactive; negative”; the mutagenic call (Test System: AMES SALMONELLA TYPHIMURIUM, Strain/Indicator: TA97, Metabolic Activation: S-9, Method: STANDARD PLATE) was “inactive; negative”; the mutagenic call under setting [1] is “inactive; negative”; the mutagenic call (Test System: AMES SALMONELLA TYPHIMURIUM, Strain/Indicator: TA100, Metabolic Activation: S-9, Method: STANDARD PLATE) was “inactive; negative”; the mutagenic call (Test System: AMES SALMONELLA TYPHIMURIUM, Strain/Indicator: TA104, Metabolic Activation: NONE, Method: STANDARD PLATE) is “inactive; negative”; the mutagenic call (Test System: AMES SALMONELLA TYPHIMURIUM, Strain/Indicator: TA104, Metabolic Activation: S-9, Method: STANDARD PLATE) is “inactive; negative”. Moreover, the mutagenic call was “inactive; negative” under setting [2]; “inactive; negative” (Test System: AMES SALMONELLA TYPHIMURIUM, Strain/Indicator: TA1537, Metabolic Activation: S-9, Method: STANDARD PLATE); “inactive; negative” under setting [3]; “inactive; negative” (Test System: AMES SALMONELLA TYPHIMURIUM, Strain/Indicator: TA1538, Metabolic Activation: S-9, Method: STANDARD PLATE).
